Experimental data published in patent US6806292B2, “Substituted imide derivatives” (Bayer Aktiengesellschaft, priority 2000, dated 2004).

Legend:
[1] = log P determination by HPLC (EEC directive 79/831 Annex V.A8); type: physicochemical; details: pH 2.3; HPLC gradient method, acetonitrile/0.1% aqueous phosphoric acid
Experimental: [The log P values were determined in accordance with EEC directive 79/831 Annex V.A8 by HPLC (gradient method, acetonitrile/0.1% aqueous phosphoric acid)]

Meloidogyne incognita = assay: Meloidogyne test; type: in vivo; details: 20 ppm, after 2 weeks, lettuce in sand
Experimental: To produce a suitable preparation of active compound, 1 part by weight of active compound is mixed with the stated amounts of solvent and emulsifier, and the concentrate is diluted with water to the desired concentration.
Containers are filled with sand, solution of active compound, Meloidogyne incognita egg/larvae suspension and lettuce seeds. The lettuce seeds germinate and the plants develop. Galls form on the roots.
After 2 weeks, the nematicidal activity is determined by the gall formation in %. 100% means that no galls have been found; 0% activity means that the number of galls on the treated plants corresponds to that of the untreated control.

chromatographic logP [1]: 2.19
Structure (SMILES): C/C(=N\C#N)NC(C)C1CCCCC1 (stereo not drawn) [Example 1, R-(−)-N-cyano-N′-cyclohexyl-eth-1-yl-ethane-imid-amide]
kill (nematicidal activity by gall formation) (Meloidogyne incognita): 100%
